Entries after “also recorded” stand apart in the source; their conditions may differ.
Tested on: sC5b-9
Test: Phase 2a study: urinary sC5b-9 (MicroVue sC5b-9 Enzyme Immunoassay);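 also: urine from C3 glomerulopathy or IC-MPGN patients, sandwich ELISA capturing sC5b-9 via C9-ring monoclonal with HRP detection read at 450 nm, values raw or normalized to creatinine or albumin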
Settings: for Urine sC5b-9 / sC5b-9/ALB / sC5b-9/Cr: 200 mg TID; for sC5b-9/ALB GEOMEAN / sC5b-9/ALB MEAN / sC5b-9/Cr MEAN / Urine sC5b-9 GEOMEAN / Urine sC5b-9 MEAN / sC5b-9/Cr GEOMEAN: patients A-F
Description: 10 patients with either C3 Glomerulopathy (C3G) or Immune-Complex Membranoproliferative Glomerulonephritis (IC-MPGN) are to be enrolled across two dose groups. […] Inclusion criteria include a clinical diagnosis of C3G (C3 glomerulonephritis [C3GN] or dense deposit disease [DDD], the 2 types of C3G) or idiopathic immune-complex membranoproliferative glomerulonephritis (IC-MPGN) by renal biopsy for at least 3 months prior to dosing, with the pathologic diagnosis verified by review of the renal biopsy by the study central pathologist. Patients must have low C3 levels (<50% of the lower limit of normal) and normal or near-normal C4 levels (>90% of the lower limit of normal).
To measure urinary sC5b-9 production, patient urine samples were tested utilizing the MicroVue sC5b-9 Enzyme Immunoassay for the quantitation of sC5b-9 in urine. […] The samples were tested utilizing the MicroVue sC5b-9 Enzyme Immunoassay for the quantitation of sC5b-9 urine, which is a three-step procedure utilizing a micro-assay plate coated with a mouse monoclonal antibody that binds specifically to the C9 ring of sC5b-9, HRP-conjugated antibodies to antigens of sC5b-9, and a chromogenic substrate. In step 1, standards, controls, and test specimens are added to micro-assay wells pre-coated with an anti-sC5b-9 specific monoclonal antibody. sC5b-9 present in the Standards, Controls, or specimens will bind to the immobilized sC5b-9 monoclonal antibody. After incubation, a wash cycle removes unbound material. […] In step 2, horseradish peroxidase (HRP)-conjugated antibodies to antigens of sC5b-9 are added to each test well. The enzyme conjugated antibodies bind to sC5b-9 that was captured by the monoclonal anti-sC5b-9 bound on the surface of the micro-assay wells. After incubation, a wash cycle removes unbound, excess conjugate. In step 3, a chromogenic enzyme substrate is added to each micro-assay well. The bound HRP-conjugate reacts with the substrate, forming a blue color. After incubation the enzyme reaction is stopped chemically, the color changes to yellow, and the color intensity is measured spectrophotometrically at 450 nm. The color intensity of the reaction mixture is proportional to the concentration of sC5b-9 present in the test specimens, standards, and controls. […] Measurements of urinary biomarkers are typically normalized to urine creatinine or albumin levels to account for variation in biomarker levels due to changes in urinary filtration rate.

CC(=O)c1nn(CC(=O)N2C[C@H](F)C[C@H]2C(=O)Nc2cccc(Br)n2)c2ccc(-c3cnc(C)nc3)cc12 [Compound 1, (2S,4R)-1-(2-(3-acetyl-5-(2-methylpyrimidin-5-yl)-1H-indazol-1-yl)acetyl)-N-(6-bromopyridin-2-yl)-4-fluoropyrrolidine-2-carboxamide]
Urine sC5b-9 (Patient D, Day 21 Taper): 44.0 ng/mL
sC5b-9/ALB (Patient D, Day 21 Taper): 18 ng/mg
sC5b-9/Cr (Patient D, Day 21 Taper): 10.5 µg/mmol
Urine sC5b-9 (Patient D, Follow-Up Day 24): 39.9 ng/mL
sC5b-9/ALB (Patient D, Follow-Up Day 24): 21 ng/mg
sC5b-9/Cr (Patient D, Follow-Up Day 24): 5.9 µg/mmol
Urine sC5b-9 (Patient D, Follow-Up Day 28): 57.8 ng/mL
sC5b-9/ALB (Patient D, Follow-Up Day 28): 21 ng/mg
sC5b-9/Cr (Patient D, Follow-Up Day 28): 12.0 µg/mmol
Urine sC5b-9 (Patient D, Follow-Up Day 49): 40.3 ng/mL
sC5b-9/ALB (Patient D, Follow-Up Day 49): 16 ng/mg
sC5b-9/Cr (Patient D, Follow-Up Day 49): 10.3 µg/mmol
Urine sC5b-9 (Patient D, Screen): 148.7 ng/mL
sC5b-9/ALB (Patient D, Screen): 34 ng/mg
sC5b-9/Cr (Patient D, Screen): 19.6 µg/mmol
sC5b-9/ALB (Patient E, Day 1/0 Hour): 127 ng/mg
sC5b-9/Cr (Patient E, Day 1/0 Hour): 54.0 µg/mmol
Urine sC5b-9 (Patient E, Day 1 predose): 959 ng/mL
Urine sC5b-9 (Patient E, Day 4): 538 ng/mL
sC5b-9/ALB (Patient E, Day 4): 61 ng/mg
Urine sC5b-9 (Patient E, Day 7): 484 ng/mL
sC5b-9/ALB (Patient E, Day 7/0 Hour): 59 ng/mg
sC5b-9/Cr (Patient E, Day 7/0 Hour): 31.5 µg/mmol
Urine sC5b-9 (Patient E, Day 10): 212 ng/mL
sC5b-9/ALB (Patient E, Day 10): 26 ng/mg
sC5b-9/Cr (Patient E, Day 10): 16.1 µg/mmol
Urine sC5b-9 (Patient E, Day 14): 112 ng/mL
sC5b-9/ALB (Patient E, Day 14): 19 ng/mg
sC5b-9/Cr (Patient E, Day 14): 5.0 µg/mmol
Urine sC5b-9 (Patient E, Day 15 Taper): 70 ng/mL
sC5b-9/ALB (Patient E, Day 15 Taper): 23 ng/mg
sC5b-9/Cr (Patient E, Day 15 Taper): 7.5 µg/mmol
Urine sC5b-9 (Patient E, Day 16 Taper): 42 ng/mL
sC5b-9/ALB (Patient E, Day 16 Taper): 15 ng/mg
sC5b-9/Cr (Patient E, Day 16 Taper): 4.2 µg/mmol
Urine sC5b-9 (Patient E, Day 17 Taper): 74 ng/mL
sC5b-9/ALB (Patient E, Day 17 Taper): 20 ng/mg
sC5b-9/Cr (Patient E, Day 17 Taper): 9.4 µg/mmol
Urine sC5b-9 (Patient E, Day 21 Taper): 97 ng/mL
sC5b-9/ALB (Patient E, Day 21 Taper): 50 ng/mg
sC5b-9/Cr (Patient E, Day 21 Taper): 12.7 µg/mmol
Urine sC5b-9 (Patient E, Follow-Up Day 24): 188 ng/mL
sC5b-9/ALB (Patient E, Follow-Up Day 24): 50 ng/mg
sC5b-9/Cr (Patient E, Follow-Up Day 24): 15.1 µg/mmol
Urine sC5b-9 (Patient E, Follow-Up Day 28): 141 ng/mL
sC5b-9/ALB (Patient E, Follow-Up Day 28): 28 ng/mg
sC5b-9/Cr (Patient E, Follow-Up Day 28): 8.5 µg/mmol
Urine sC5b-9 (Patient E, Follow-Up Day 49): 217 ng/mL
sC5b-9/ALB (Patient E, Follow-Up Day 49): 42 ng/mg
sC5b-9/ALB (Patient F, Day 1/0 Hour): 120 ng/mg
sC5b-9/Cr (Patient F, Day 1/0 Hour): 35.2 µg/mmol
Urine sC5b-9 (Patient F, Day 1 predose): 348 ng/mL
Urine sC5b-9 (Patient F, Day 4): 43 ng/mL
sC5b-9/ALB (Patient F, Day 4): 58 ng/mg
sC5b-9/Cr (Patient F, Day 4): 8.8 µg/mmol
Urine sC5b-9 (Patient F, Day 7): 54 ng/mL
sC5b-9/ALB (Patient F, Day 7/0 Hour): 147 ng/mg
sC5b-9/Cr (Patient F, Day 7/0 Hour): 13.9 µg/mmol
Urine sC5b-9 (Patient F, Day 10): 34 ng/mL
Urine sC5b-9 (Patient F, Day 14): 62 ng/mL
sC5b-9/ALB (Patient F, Day 14): 37 ng/mg
sC5b-9/Cr (Patient F, Day 14): 6.7 µg/mmol
Urine sC5b-9 (Patient F, Day 15 Taper): 35 ng/mL
sC5b-9/ALB (Patient F, Day 15 Taper): 8 ng/mg
sC5b-9/Cr (Patient F, Day 15 Taper): 5.8 µg/mmol
Urine sC5b-9 (Patient F, Day 16 Taper): 25 ng/mL
sC5b-9/ALB (Patient F, Day 16 Taper): 30 ng/mg
sC5b-9/Cr (Patient F, Day 16 Taper): 7.0 µg/mmol
Urine sC5b-9 (Patient F, Day 17 Taper): 55 ng/mL
sC5b-9/ALB (Patient F, Day 17 Taper): 12 ng/mg
sC5b-9/Cr (Patient F, Day 17 Taper): 5.9 µg/mmol
Urine sC5b-9 (Patient F, Day 21 Taper): 104 ng/mL
sC5b-9/ALB (Patient F, Day 21 Taper): 24 ng/mg
sC5b-9/Cr (Patient F, Day 21 Taper): 8.2 µg/mmol
Urine sC5b-9 (Patient F, Follow-Up Day 24): 51 ng/mL
sC5b-9/ALB (Patient F, Follow-Up Day 24): 34 ng/mg
sC5b-9/Cr (Patient F, Follow-Up Day 24): 9.5 µg/mmol
Urine sC5b-9 (Patient F, Follow-Up Day 28): 65 ng/mL
sC5b-9/ALB (Patient F, Follow-Up Day 28): 57 ng/mg
sC5b-9/Cr (Patient F, Follow-Up Day 28): 14.4 µg/mmol
Urine sC5b-9 (Patient F, Follow-Up Day 49): 180 ng/mL
sC5b-9/ALB (Patient F, Follow-Up Day 49): 59 ng/mg
sC5b-9/Cr (Patient F, Follow-Up Day 49): 33.2 µg/mmol
sC5b-9/ALB GEOMEAN (Day 1/0 Hour): 125.0 ng/mg
sC5b-9/ALB MEAN (Day 1/0 Hour): 335.0 ng/mg
sC5b-9/Cr MEAN (Day 1/0 Hour): 163.6 µg/mmol
Urine sC5b-9 GEOMEAN (Day 1 predose): 210 ng/mL
Urine sC5b-9 MEAN (Day 1 predose): 1120 ng/mL
Urine sC5b-9 GEOMEAN (Day 4): 94 ng/mL
Urine sC5b-9 MEAN (Day 4): 472 ng/mL
sC5b-9/ALB GEOMEAN (Day 4): 80.6 ng/mg
sC5b-9/ALB MEAN (Day 4): 165.3 ng/mg
sC5b-9/Cr GEOMEAN (Day 4): 14.0 µg/mmol
sC5b-9/Cr MEAN (Day 4): 37.0 µg/mmol
Urine sC5b-9 GEOMEAN (Day 7): 91 ng/mL
Urine sC5b-9 MEAN (Day 7): 483 ng/mL
sC5b-9/ALB GEOMEAN (Day 7/0 Hour): 102.8 ng/mg
sC5b-9/ALB MEAN (Day 7/0 Hour): 171.5 ng/mg
sC5b-9/Cr GEOMEAN (Day 7/0 Hour): 17.1 µg/mmol
sC5b-9/Cr MEAN (Day 7/0 Hour): 38.0 µg/mmol
Urine sC5b-9 GEOMEAN (Day 10): 56 ng/mL
Urine sC5b-9 MEAN (Day 10): 231 ng/mL
Urine sC5b-9 GEOMEAN (Day 15 Taper): 66 ng/mL
Urine sC5b-9 MEAN (Day 15 Taper): 588 ng/mL
sC5b-9/ALB GEOMEAN (Day 15 Taper): 48.2 ng/mg
sC5b-9/ALB MEAN (Day 15 Taper): 192.6 ng/mg
sC5b-9/Cr GEOMEAN (Day 15 Taper): 11.9 µg/mmol
sC5b-9/Cr MEAN (Day 15 Taper): 55.8 µg/mmol
Urine sC5b-9 GEOMEAN (Day 17 Taper): 71 ng/mL
Urine sC5b-9 MEAN (Day 17 Taper): 488 ng/mL
sC5b-9/ALB GEOMEAN (Day 17 Taper): 51.5 ng/mg
sC5b-9/ALB MEAN (Day 17 Taper): 191.3 ng/mg
sC5b-9/Cr GEOMEAN (Day 17 Taper): 11.6 µg/mmol
sC5b-9/Cr MEAN (Day 17 Taper): 45.3 µg/mmol
Urine sC5b-9 GEOMEAN (Day 21 Taper): 99 ng/mL
Urine sC5b-9 MEAN (Day 21 Taper): 468 ng/mL
sC5b-9/ALB GEOMEAN (Day 21 Taper): 76.3 ng/mg
sC5b-9/ALB MEAN (Day 21 Taper): 190.1 ng/mg
sC5b-9/Cr GEOMEAN (Day 21 Taper): 15.2 µg/mmol
sC5b-9/Cr MEAN (Day 21 Taper): 58.3 µg/mmol
Urine sC5b-9 GEOMEAN (Follow-Up Day 24): 108 ng/mL
Urine sC5b-9 MEAN (Follow-Up Day 24): 724 ng/mL
sC5b-9/ALB GEOMEAN (Follow-Up Day 24): 92.3 ng/mg
sC5b-9/ALB MEAN (Follow-Up Day 24): 289.8 ng/mg
sC5b-9/Cr GEOMEAN (Follow-Up Day 24): 17.8 µg/mmol
sC5b-9/Cr MEAN (Follow-Up Day 24): 115.8 µg/mmol
Urine sC5b-9 GEOMEAN (Follow-Up Day 28): 113 ng/mL
Urine sC5b-9 MEAN (Follow-Up Day 28): 457 ng/mL
sC5b-9/ALB GEOMEAN (Follow-Up Day 28): 80.5 ng/mg
sC5b-9/ALB MEAN (Follow-Up Day 28): 200.5 ng/mg
sC5b-9/Cr MEAN (Follow-Up Day 28): 64.2 µg/mmol
Urine sC5b-9 GEOMEAN (Follow-Up Day 49): 162 ng/mL
Urine sC5b-9 MEAN (Follow-Up Day 49): 2440 ng/mL
sC5b-9/ALB GEOMEAN (Follow-Up Day 49): 123.3 ng/mg
sC5b-9/ALB MEAN (Follow-Up Day 49): 1111.7 ng/mg
sC5b-9/Cr GEOMEAN (Follow-Up Day 49): 23.5 µg/mmol
sC5b-9/Cr MEAN (Follow-Up Day 49): 159.5 µg/mmol
Urinary sC5b-9 levels (two-week treatment): reduced significantly; also recorded: reduced in all patients
Urinary sC5b-9 levels normalized to urinary creatinine or albumin (two-week treatment): reduced significantly

Source: US20210215714A1, “COMPLEMENT ALTERNATIVE PATHWAY-ASSOCIATED NEPHROPATHY BIOMARKERS” (Achillion Pharmaceuticals, Inc., priority 2018, published 2021)
